The values that follow come from patent US20250236589A1, “THERAPEUTIC PHENETHYLAMINE COMPOSITIONS AND METHODS OF USE” (Cybin IRL Limited, priority 2022, published 2025).

One data set concerns the target human 5-HT2B receptor (Homo sapiens (Human), UniProt P41595). The data set is described as follows: 5-HT2B functional assay, IP1 (IPOne). The data set is classed as cell-based. The conditions noted are these: for Emax: IP1 assay. On the procedure: 5-HT2A,2B,2C receptor-mediated Gq activation—canonical signaling pathways—[phosphoinositide hydrolysis leading to the production of inositol phosphate 1 (IP1, IPOne, Cisbio assay) or direct G-protein activation using TRUPATH technology]were measured as previously described (Porter, R. H. P., Benwell, K. R., Lamb, H., Malcolm, C. S., Allen, N. F., Revell, D. F., Adams, D. R. and Sheardown, M. J., 1999, Functional characterization of agonists at recombinant human 5-HT2a, 5HT2b and 5-HT2c receptors in CHO-K1 cells, Brit J Pharmacol 128, 13; Olsen, R. H. J., DiBerto, J. F., English, J. G. et al. TRUPATH, an open-source biosensor platform for interrogating the GPCR transducerome. […] Briefly, for the IPOne assay, for 5-HT2ARs, CHO-K1 or HEK-293 cells were incubated with test articles and 5-HT (positive control) in stimulation buffer containing LiCl. After incubation, cells were lysed and fluorescence acceptor and donor were added. FRET was measured after 60 min at room temperature using a microplate reader (Envision, Perkin Elmer). TRUPATH assays followed a similar workflow, except that different reagents were used, and LiCl was not included in the samples; the protocol was based on the report by Olsen, R. H. J. et al., cited above.

The target in the next data set is 5-HT1A receptors (Homo sapiens (Human), UniProt P08908). The data set is described as follows: 5-HT1A radioligand binding ([3H]8-OH-DPAT). The conditions noted are these: for inhibition at 0.1 µM: 100 nM. As to the method:
In another series of 5-HT1A,2A,2B radioligand competition binding assays, the conditions were as follows: For 5-HT1A assays, cell membrane homogenates (˜30 μg protein) derived from HEK-293 cells expressing human 5-HT1ARs were incubated with 0.5 nM [^3H]8-hydroxy-2-(di-n-propylamino)tetralin ([^3H]8-OH-DPAT) for 60 min at room temperature in the presence or absence of the test article. Non-specific binding was determined in the presence of 10 μM 8-OH-DPAT. Samples were then analyzed as described above, with only immaterial differences. […] Samples were then analyzed as described above.

Data set [1] in a line: Plasma and brain concentrations after dosing in mice (screening). The data set is classed as in vivo, mouse. The conditions noted are these: mouse; for concentration at 15 min / concentration at 160 min: sc, mice, 3 mg/kg s.c.; for Kp at 160 min: brain/plasma, subcutaneous, 3 mg/kg, 160 min after 3 mg/kg, read-out: brain/plasma ratio, 160 min.
The test system of the next data set is mice. The experiment in a line: Head-twitch response (HTR) screening in mice. The data set is classed as in vivo, mouse. On the procedure: Protocols were followed according to Canal C E, Morgan D. Head-twitch response in rodents induced by the hallucinogen 2,5-dimethoxy-4-iodoamphetamine: a comprehensive history, a re-evaluation of mechanisms, and its utility as a model. […] Mice were housed in standard laboratory cages with ad libitum access to food and water and were acclimated to the vivarium for at least one week prior to testing in a procedure room. In a typical experiment, mice were injected 3 mg/kg of test article subcutaneously. Mice were placed immediately thereafter in a clear, polycarbonate box (46×20×20 cm), and HTRs were counted at various time points after administration using hand-held tally counters. In a separate experiment, plasma and brain samples were collected at 15 and 160 minutes after administration of test compounds to measure plasma and brain concentrations. Quantification was performed using LC-MS/MS method (LLOQ, 9 nM).

For data set [2], the target named is T1, 5-HT2A receptor (Homo sapiens (Human), UniProt P28223). The data set is described as follows: 5-HT2A radioligand competition binding ([3H]LSD or [3H]ketanserin). (In general: Displacement assays read how much labelled ligand stays bound in the presence of the test substance.)
The nature of data set [3]: In vitro liver microsome stability (RLM). The data set is classed as in vitro ADME. The following applies: rat, rat liver microsomes, 0.5 mg/mL microsomes, NADPH, read-out: RLM, t1/2. As to the method: In vitro stability was determined in Human (HLM), Rat (RLM), Mouse (MsLM), and dog (DLM) Liver Microsomes. All liver microsomes were purchased from a commercial supplier (e.g. XenoTech). The reaction mixture, minus NADPH, was prepared as described below. The test compound was added into the reaction mixture at a final concentration of 1 μM or co-dosed with their deuterated analog(s) at 1 μM each. The control compound, testosterone, was run simultaneously with the test compound in a separate reaction. The reaction mixture (without cofactor) was equilibrated in a shaking water bath at 37° C. for 5 minutes. The reaction was initiated by the addition of the cofactor, and the mixture was incubated in a shaking water bath at 37° C. Aliquots (150 μL) were withdrawn at 0, 5, 10, 20, 30, 60, and 120 minutes. Test compound and testosterone samples were immediately combined with 150 μL of ice-cold acetonitrile (ACN) containing 0.1% formic acid and internal standard to terminate the reaction. The samples were then mixed and centrifuged to precipitate proteins. All samples were assayed by LC-MS/MS using electrospray ionization. The peak area response ratio (PARR) of analyte to internal standard at each time point was compared to the PARR at time 0 to determine the percent remaining at each time point. Half-lives were calculated using GraphPad software, fitting to a single-phase exponential decay equation.
Background: Liver microsomes are a subcellular fraction often used to study metabolism.

For data set [4], the target named is T1, 5-HT2A receptor. The experiment in a line: 5-HT2A functional assay, IP1 (IPOne). The data set is classed as cell-based. The conditions noted are these: for 2A/2B EC50 Selectivity / Emax: IP1 assay; for Emax: relative to 5-HT. As to the method: After incubation, cells were lysed and fluorescence acceptor and donor were added. FRET was measured after 60 min at room temperature using a microplate reader (Envision, Perkin Elmer). TRUPATH assays followed a similar workflow, except that different reagents were used, and LiCl was not included in the samples; the protocol was based on the report by Olsen, R. H. J. et al., cited above.

A further data set addresses 5-HT2C receptor (Homo sapiens (Human), UniProt P28335). The experiment in a line: 5-HT2C radioligand competition binding ([3H]mesulergine or [3H]LSD). The conditions noted are these: read-out: 5-HT2C, Ki; radioligand [3H]mesulergine.
The next data set deals with MAO-A (Homo sapiens (Human), UniProt P21397). The data set is described as follows: Recombinant human MAO-A activity (stability). Type of data set: in vitro ADME. The following applies: hrMAO 0.02 mg/mL, read-out: MAO-A, t1/2. As to the method:
hrMAO-A and MAO control were purchased from XenoTech. The reaction mixture was prepared as described below. The test compound was added into the reaction mixture at a final concentration of 1 μM or co-dosed with their deuterated analog at 1 μM each. The positive control kynuramine (25 μM) was run simultaneously with the test compound in a separate reaction. The reaction mixture (without test compounds or kynuramine) was equilibrated in a shaking water bath at 37° C. for 5 minutes. The reaction was initiated by the addition of the test compound or kynuramine, and the mixture was incubated in a shaking water bath at 37° C. Aliquots (150 μL) of the test compound reaction mixture were withdrawn at 0, 5, 10, 20, 30, 60, and 120 minutes. Aliquots (150 μL) of the positive control reaction mixture were withdrawn at 0 and 30 minutes. Test compound(s) and kynuramine samples were immediately combined with 150 μL of ice-cold 100% acetonitrile containing 0.1% formic acid and internal standard (0.2 μM metoprolol) to terminate the reaction. The samples were then mixed and centrifuged to precipitate proteins. All samples were assayed by LC-MS/MS. The peak area response ratio (PARR) of analyte to internal standard at each time point was compared to the PARR at time 0 to determine the percent remaining at each time point. Half-lives were calculated using GraphPad software, fitting to a single-phase exponential decay equation.

Setting [5] is: brain, read-out: Brain, 160 min.
Setting [6] is: plasma, read-out: Plasma, 15 min.
The mark [7] stands for this setting: plasma, read-out: Plasma, 160 min.
[8] abbreviates: read-out: 5-HT2A, Ki, radioligand [3H]ketanserin.

Read-outs that look alike come from different tables or passages of the source. Marks after values point to notes of the source that are not given here. Some results are limits rather than exact numbers.

As usually defined, the EC50 is the concentration that produces a half-maximal response. Low values mean a more potent agent, high ones a less potent agent. A word on the Emax: it is the size of the effect at its maximum, as opposed to the concentration needed. The inhibition is the share of the control response that was lost under treatment. As usually defined, the Ki is a dissociation constant, usually derived from enzyme kinetics or from competition with a known ligand.

MAO-A, sequence (P21397 whole entry, looked up): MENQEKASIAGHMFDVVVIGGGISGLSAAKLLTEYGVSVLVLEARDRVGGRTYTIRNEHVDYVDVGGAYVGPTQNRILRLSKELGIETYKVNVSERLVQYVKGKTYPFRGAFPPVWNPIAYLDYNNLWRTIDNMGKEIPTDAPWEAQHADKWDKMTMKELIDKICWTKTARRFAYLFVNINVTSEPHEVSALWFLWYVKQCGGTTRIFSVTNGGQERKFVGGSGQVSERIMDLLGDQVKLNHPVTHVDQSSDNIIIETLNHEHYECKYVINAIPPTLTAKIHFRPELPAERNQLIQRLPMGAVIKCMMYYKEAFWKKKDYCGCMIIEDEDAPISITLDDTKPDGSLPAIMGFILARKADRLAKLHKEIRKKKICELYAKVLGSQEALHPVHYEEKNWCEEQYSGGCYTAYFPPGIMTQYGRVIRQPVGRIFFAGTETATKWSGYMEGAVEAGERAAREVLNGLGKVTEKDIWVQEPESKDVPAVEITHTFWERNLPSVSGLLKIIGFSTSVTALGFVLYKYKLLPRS
human 5-HT2B receptor, sequence (P41595 whole entry, looked up): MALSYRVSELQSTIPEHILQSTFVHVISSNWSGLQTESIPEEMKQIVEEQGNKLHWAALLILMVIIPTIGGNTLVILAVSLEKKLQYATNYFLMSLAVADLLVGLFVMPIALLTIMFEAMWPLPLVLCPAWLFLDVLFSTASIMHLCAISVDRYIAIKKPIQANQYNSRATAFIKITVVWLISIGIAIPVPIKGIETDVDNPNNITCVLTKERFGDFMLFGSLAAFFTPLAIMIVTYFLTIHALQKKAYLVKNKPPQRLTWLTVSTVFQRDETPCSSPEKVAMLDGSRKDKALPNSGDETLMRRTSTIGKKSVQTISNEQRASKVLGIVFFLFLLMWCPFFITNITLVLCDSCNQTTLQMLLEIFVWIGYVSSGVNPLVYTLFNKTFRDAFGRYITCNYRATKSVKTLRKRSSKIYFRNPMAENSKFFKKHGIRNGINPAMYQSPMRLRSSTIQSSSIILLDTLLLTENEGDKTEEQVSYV
5-HT2C receptor, sequence (P28335 whole entry, looked up): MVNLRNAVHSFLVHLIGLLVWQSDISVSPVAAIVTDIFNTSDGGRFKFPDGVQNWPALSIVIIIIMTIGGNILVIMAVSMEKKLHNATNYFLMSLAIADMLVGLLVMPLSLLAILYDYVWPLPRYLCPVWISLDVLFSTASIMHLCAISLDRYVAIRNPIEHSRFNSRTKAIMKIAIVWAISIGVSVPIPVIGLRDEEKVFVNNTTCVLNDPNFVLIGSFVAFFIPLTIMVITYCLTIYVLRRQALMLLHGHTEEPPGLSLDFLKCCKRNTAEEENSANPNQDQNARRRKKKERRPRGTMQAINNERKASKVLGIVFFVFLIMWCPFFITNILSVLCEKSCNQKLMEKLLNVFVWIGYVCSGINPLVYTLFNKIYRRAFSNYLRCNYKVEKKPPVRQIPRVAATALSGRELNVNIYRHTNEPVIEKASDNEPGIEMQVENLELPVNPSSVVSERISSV

With `COc1cc(SCCC(F)F)c(OC)cc1CCN` [Compound I-3, 2-(4-((3,3-difluoropropyl)thio)-2,5-dimethoxyphenyl)ethan-1-amine], the EC50 was 160 nM on human 5-HT2B receptor and 10 nM on 5-HT2A receptor [4]. In addition, the results for the Emax on human 5-HT2B receptor (constrained to 100%) and at 5-HT2A receptor [4] were 100% and 93%, respectively. Moreover, at 5-HT1A receptors, the inhibition at 0.1 µM worked out at 10%. At 5-HT1A receptors, at 1 µM the inhibition was 63%. For the same compound, the concentration at 15 min in data set [1] (brain, read-out: Brain 15 min) came out at 670 nM; in data set [1] (setting [6]), 700 nM. Besides, the results for the concentration at 160 min in data set [1] (setting [5]) and in data set [1] (setting [7]) were 510 nM and 55 nM, respectively. The Kp at 160 min in data set [1] was determined as 9.3. Moreover, in the data set on mice (mice, 3 mg/kg s.c.), the “HTR 15-25 min” value was found to be 5. Besides, the “HTR 160-170 min” value in the data set with mice (mice, 3 mg/kg s.c.) came to 2.5. Besides, the Ki on 5-HT2A receptor [2] amounted to 44 nM; at 5-HT2A receptor [2] (read-out: 5-HT2A, Ki, [3H]LSD, high-affinity active state), 0.4 nM. In addition, on 5-HT2A receptor [2], the “affinity at 5-HT2A receptors (in words)” value was “high affinity”. In addition, in data set [3], the half-life at 1 μM was 1.85 h. Further, the “2A/2B EC50 Selectivity” value at 5-HT2A receptor [4] is 16.

`COc1cc(SC(F)F)c(OC)cc1CCN` [Compound I-8, 2-(4-((difluoromethyl)thio)-2,5-dimethoxyphenyl)ethan-1-amine]: at human 5-HT2B receptor, the EC50 was 67.9 nM. Moreover, the Emax at human 5-HT2B receptor (relative to 5-HT) worked out at 87%. Also, on 5-HT1A receptors, the inhibition at 0.1 µM was found to be 38% and the inhibition at 1 µM was 84%. For the same compound, in [1] (brain, read-out: Brain 15 min), the concentration at 15 min is 1900 nM. The concentration at 160 min in data set [1] (setting [5]) worked out at 2200 nM. In addition, the Kp at 160 min in [1] came to 74. For the same compound, in data set [1] (setting [6]), the concentration at 15 min was determined as 300 nM. The concentration at 160 min in [1] (setting [7]) was determined as 30 nM. Besides, in the data set with mice (mice, 3 mg/kg s.c.), the “HTR 15-25 min” value is recorded as 33.4 and the “HTR 160-170 min” value was 17.4. The “affinity at 5-HT2A receptors (in words)” value at 5-HT2A receptor [2] is on record as “high affinity”. Also, on 5-HT2A receptor [2] (read-out: 5-HT2A, Ki, radioligand [3H]LSD), the inhibitory constant (Ki) was determined as 6.3 nM. On 5-HT2A receptor [4], a half-maximal response (EC50) required 5.3 nM, the “2A/2B EC50 Selectivity” value turned out to be 12.8 and the Emax turned out to be 99%.

In the case of `[2H]C([2H])(N)Cc1cc(OC)c(C(F)(F)F)cc1OC` [IV-3, 2-(2,5-dimethoxy-4-(trifluoromethyl)phenyl)ethan-1,1-d2-1-amine], the results for the Ki on 5-HT2C receptor and on 5-HT2A receptor [2] (setting [8]) were 23 nM and 42 nM, respectively. Besides, the results for the half-life at 1 μM (in data set [3]; at MAO-A) were 0.185 h and 1.7 h, respectively.

As to `COc1cc(SC)c(OC)cc1CCN` [Reference Compound 3, 2-(2,5-dimethoxy-4-(methylthio)phenyl)ethan-1-amine, reference compound], the “HTR 15-25 min” value with mice (measured 0-15 min) was 19 ##. The Ki on 5-HT2A receptor [2] (setting [8]) worked out at 296 nM. In addition, the half-life at 1 μM in data set [3] was 0.0867 h; on MAO-A it was above 2 h.

Turning to `COc1cc(C(F)(F)F)c(OC)cc1CCN` [Reference Compound 4, 2-(2,5-dimethoxy-4-(trifluoromethyl)phenyl)ethan-1-amine, reference compound], the values for the Ki on 5-HT2C receptor and on 5-HT2A receptor [2] (setting [8]) were 35 nM and 25 nM, respectively. For the same compound, the half-life at 1 μM in data set [3] worked out at 0.128 h; at MAO-A, 1.46 h.
